Experimental data: publication PMC4004102 (Molecular cell, 2014)

Molecular target: AgrC-I (Staphylococcus aureus, UniProt Q309Y8)
Assay: reverse autokinase kinetics, Michaelis-Menten
Assay type: biochemical
Conditions: reverse reaction from pre-phosphorylated AgrC-I discs; without AIP

For Nc1ncnc2c1ncn2[C@@H]1O[C@H](COP(=O)(O)OP(=O)(O)O)[C@@H](O)[C@H]1O [ADP], the Km was “the Km for ADP was lower while the kmax was higher than the forward reaction”.
